Source: ChEMBL document CHEMBL1201862, “PubChem BioAssay data set” (2004)
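Dose response: 5 concentrations. Exposure: 48 h. Format: 96-well plates. Endpoint: linear interpolation; highest concentration if not reached. GI50 is the concentration that inhibits growth by half.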 Activity calls are given as the source filed them. No stated cut-off is given here; in the data, active = GI50 up to about 1.1 µM and inactive = higher.

How the values were obtained:
Experiment in all cases: DTP human tumour cell line panel, 48 h
786-0 = tested on: 786-0
CAKI-1 = tested on: CAKI-1
DU-145 = tested on: DU-145
EKVX = tested on: EKVX
HCT-15 = tested on: HCT-15
HOP-62 = tested on: HOP-62
MDA-MB-435 = tested on: MDA-MB-435
NCI/ADR-RES = tested on: NCI/ADR-RES
OVCAR-3 = tested on: OVCAR-3
OVCAR-4 = tested on: OVCAR-4
SF-268 = tested on: SF-268
SK-MEL-2 = tested on: SK-MEL-2
SK-MEL-5 = tested on: SK-MEL-5
SK-OV-3 = tested on: SK-OV-3
SN12C = tested on: SN12C
UACC-257 = tested on: UACC-257
UACC-62 = tested on: UACC-62
CCRF-CEM = tested on: CCRF-CEM
HCC 2998 = tested on: HCC 2998

Compound	GI50 (786-0)	GI50 (CAKI-1)	GI50 (DU-145)	GI50 (EKVX)	GI50 (HCT-15)	GI50 (HOP-62)	GI50 (MDA-MB-435)	GI50 (NCI/ADR-RES)	GI50 (OVCAR-3)	GI50 (OVCAR-4)	GI50 (SF-268)	GI50 (SK-MEL-2)	GI50 (SK-MEL-5)	GI50 (SK-OV-3)	GI50 (SN12C)	GI50 (UACC-257)	GI50 (UACC-62)	GI50 (CCRF-CEM)	GI50 (HCC 2998)
Cn1c(=O)c2nc(CCCc3ccc([N+](=O)[O-])cc3)[nH]c2n(C)c1=O	> 100 µM (inactive)	> 100 µM (inactive)	> 100 µM (inactive)	> 100 µM (inactive)	> 100 µM	> 100 µM (inactive)	> 100 µM (inactive)	> 100 µM (inactive)	> 100 µM (inactive)	> 100 µM (inactive)	> 100 µM (inactive)	> 100 µM (inactive)	59.3 µM (inactive)	> 100 µM (inactive)	> 100 µM (inactive)	> 100 µM (inactive)	> 100 µM (inactive)	–	–
O=C/C(=C(/Br)I)c1ccccc1	2.54 µM (inactive)	2.14 µM (inactive)	15.7 µM (inactive)	15.3 µM (inactive)	2.24 µM	15.7 µM (inactive)	2.56 µM (inactive)	3.95 µM (inactive)	2.74 µM (inactive)	3.86 µM (inactive)	2.3 µM (inactive)	3.42 µM (inactive)	7.06 µM (inactive)	14.5 µM (inactive)	1.9 µM (inactive)	5.69 µM (inactive)	6.7 µM (inactive)	0.248 µM (active)	–
O=C(/N=N/c1ccccc1Cl)NNc1ccccc1Cl	18.5 µM (inactive)	36.7 µM (inactive)	43.2 µM (inactive)	–	60.7 µM	9.48 µM (inactive)	31 µM (inactive)	–	35 µM (inactive)	16.2 µM (inactive)	60.5 µM (inactive)	32 µM (inactive)	85.3 µM (inactive)	–	61.7 µM (inactive)	> 100 µM (inactive)	43.4 µM (inactive)	22.2 µM (inactive)	27.1 µM (inactive)
C[N+](C)(C)CC(=O)N/N=C(/Cc1nc2ccc([N+](=O)[O-])cc2nc1O)C(=O)Nc1cc(C(F)(F)F)ccc1Cl	> 100 µM (inactive)	> 100 µM (inactive)	–	76 µM (inactive)	–	> 100 µM (inactive)	–	–	> 100 µM (inactive)	> 100 µM (inactive)	> 100 µM (inactive)	> 100 µM (inactive)	> 100 µM (inactive)	> 100 µM (inactive)	> 100 µM (inactive)	> 100 µM (inactive)	94.2 µM (inactive)	66.7 µM (inactive)	> 100 µM (inactive)
Cc1cc(O)c2c3c1C(=O)Oc1c(CO)c(O)c(C(=O)O)c(c1O3)C=NN=Cc1c3c(c(CO)c(O)c1C(=O)O)OC(=O)c1c(C)cc(O)c(c1O3)C=NN=C2	> 100 µM (inactive)	> 100 µM (inactive)	–	> 100 µM (inactive)	> 100 µM	> 100 µM (inactive)	–	–	32.7 µM (inactive)	> 100 µM (inactive)	> 100 µM (inactive)	–	40.2 µM (inactive)	> 100 µM (inactive)	> 100 µM (inactive)	> 100 µM (inactive)	> 100 µM (inactive)	–	> 100 µM (inactive)
COc1cccc(C23CCCC(C2)NCC3Br)c1OC (centres undefined)	81.3 µM (inactive)	41.6 µM (inactive)	53.8 µM (inactive)	28.4 µM (inactive)	40.9 µM	38 µM (inactive)	39 µM (inactive)	31.1 µM (inactive)	34.5 µM (inactive)	35 µM (inactive)	23 µM (inactive)	> 100 µM (inactive)	2.55 µM (inactive)	> 100 µM (inactive)	31 µM (inactive)	8.39 µM (inactive)	21.4 µM (inactive)	21.9 µM (inactive)	–
CC(=O)OCCCCN1C(=O)CSc2ccccc21	> 10 µM (inactive)	> 100 µM (inactive)	> 100 µM (inactive)	> 100 µM (inactive)	> 100 µM	> 100 µM (inactive)	> 100 µM (inactive)	–	> 100 µM (inactive)	> 100 µM (inactive)	–	> 100 µM (inactive)	66.5 µM (inactive)	> 100 µM (inactive)	> 100 µM (inactive)	> 100 µM (inactive)	> 100 µM (inactive)	> 100 µM (inactive)	–
Cc1ccc(C(=O)N/N=C(\N=N\c2ccccc2[N+](=O)[O-])c2ccc(N(C)C)cc2)cc1	> 100 µM (inactive)	> 100 µM (inactive)	–	> 100 µM (inactive)	92.5 µM	–	22.8 µM (inactive)	> 100 µM (inactive)	92 µM (inactive)	> 100 µM (inactive)	> 100 µM (inactive)	> 100 µM (inactive)	> 100 µM (inactive)	> 100 µM (inactive)	> 100 µM (inactive)	> 100 µM (inactive)	17.4 µM (inactive)	> 100 µM (inactive)	60.5 µM (inactive)
CCOC(=O)c1c(N)n(-c2ccccc2)c(=O)n(-c2ccccc2)c1=O	> 100 µM (inactive)	–	> 100 µM (inactive)	–	> 100 µM	–	> 100 µM (inactive)	–	> 100 µM (inactive)	> 100 µM (inactive)	> 100 µM (inactive)	> 100 µM (inactive)	> 100 µM (inactive)	–	> 100 µM (inactive)	> 100 µM (inactive)	> 100 µM (inactive)	> 10 µM (inactive)	> 100 µM (inactive)
CC1=C(C(=O)Nc2cc(=O)n(C)c(=O)n2C)C(c2cccc([N+](=O)[O-])c2)C(C(=O)Nc2cc(=O)n(C)c(=O)n2C)=C(C)N1	> 100 µM (inactive)	> 100 µM (inactive)	–	15.9 µM (inactive)	–	> 100 µM (inactive)	–	–	> 100 µM (inactive)	> 100 µM (inactive)	> 100 µM (inactive)	> 100 µM (inactive)	74.6 µM (inactive)	> 100 µM (inactive)	> 100 µM (inactive)	> 100 µM (inactive)	–	> 100 µM (inactive)	31.5 µM (inactive)
O=[N+]([O-])c1ccc(CSc2nncc3[nH]cnc23)cc1	> 100 µM (inactive)	> 100 µM (inactive)	–	> 100 µM (inactive)	> 100 µM	> 100 µM (inactive)	93.1 µM (inactive)	> 100 µM (inactive)	> 100 µM (inactive)	> 100 µM (inactive)	–	83.6 µM (inactive)	> 100 µM (inactive)	> 100 µM (inactive)	> 100 µM (inactive)	> 100 µM (inactive)	62.4 µM (inactive)	> 100 µM (inactive)	> 100 µM (inactive)
CN(/N=C/c1ccccn1)C1=NCCCCN1	> 100 µM (inactive)	> 100 µM (inactive)	–	> 100 µM (inactive)	> 100 µM	> 100 µM (inactive)	> 100 µM (inactive)	> 100 µM (inactive)	> 100 µM (inactive)	> 100 µM (inactive)	> 100 µM (inactive)	> 100 µM (inactive)	> 100 µM (inactive)	> 100 µM (inactive)	–	> 100 µM (inactive)	> 100 µM (inactive)	> 100 µM (inactive)	> 100 µM (inactive)
CC1CCC2(OC1)OC1CC3C4CC=C5CC(OC6OC(CO)C(OC7OC(C)C(OC8OC(C)C(O)C(O)C8O)C(O)C7O)C(O)C6OC6OC(C)C(O)C(O)C6O)CCC5(C)C4CCC3(C)C1C2C (centres undefined)	1.07 µM (active)	1.29 µM (inactive)	1.28 µM (inactive)	0.757 µM (active)	1.51 µM	2.56 µM (inactive)	0.281 µM (active)	–	1.75 µM (inactive)	0.275 µM (active)	0.56 µM (active)	1.21 µM (inactive)	1.43 µM (inactive)	1.07 µM (active)	0.267 µM (active)	0.74 µM (active)	0.311 µM (active)	0.0643 µM (active)	0.313 µM (active)
COc1cc(C2=C(C)[C@@H]3CN(CC=C3c3ccc(Cl)cc3)C2)c(S(=O)(=O)O)cc1OC	> 100 µM (inactive)	> 100 µM (inactive)	> 100 µM (inactive)	> 100 µM (inactive)	> 100 µM	> 100 µM (inactive)	> 100 µM (inactive)	> 100 µM (inactive)	> 100 µM (inactive)	> 100 µM (inactive)	> 100 µM (inactive)	> 100 µM (inactive)	> 100 µM (inactive)	> 100 µM (inactive)	> 100 µM (inactive)	> 100 µM (inactive)	> 100 µM (inactive)	> 100 µM (inactive)	–
COc1cc2c(cc1OCCCCOc1cc3nc(C)nc(Cl)c3cc1OC)N=C[C@@H]1CCCN1C2=O	3.12 µM (inactive)	2.38 µM (inactive)	3.22 µM (inactive)	4.73 µM (inactive)	1.43 µM	2.67 µM (inactive)	1.62 µM (inactive)	2.27 µM (inactive)	2.06 µM (inactive)	2.84 µM (inactive)	2.74 µM (inactive)	1.95 µM (inactive)	1.77 µM (inactive)	30.4 µM (inactive)	1.93 µM (inactive)	2.29 µM (inactive)	1.48 µM (inactive)	–	–
CC(C)=CCNc1ncnc2[nH]cnc12	> 100 µM (inactive)	> 100 µM (inactive)	> 100 µM (inactive)	> 100 µM (inactive)	> 100 µM	> 100 µM (inactive)	> 100 µM (inactive)	> 100 µM (inactive)	> 100 µM (inactive)	> 100 µM (inactive)	> 100 µM (inactive)	> 100 µM (inactive)	87.7 µM (inactive)	> 100 µM (inactive)	> 100 µM (inactive)	37.1 µM (inactive)	88.5 µM (inactive)	> 100 µM (inactive)	–
